Assay [1] has as its system HDAC (HeLa nuclear extract). Nature of the assay: HDAC Inhibitor Drug Screening Kit (fluorometric, Biovision K340-100). The class given is biochemical. The following applies: for Inhibition at 10 μM (%) / Inhibition at 500 μM (%): mean of 3 independent measurements, SD <10%; for IC50: HDAC inhibitory activity. As for the experimental part:
The N^1-phenylpyrazole derivatives 1a (the isomer with the connection unit at C5) and 1b (the isomer with the connection unit at C3) were evaluated for their ability to inhibit the HDAC activity to have a preliminary insight about the SAR of this set of compounds. […] Therefore, the development of the other two derivatives of this class, i.e., the p-CN-phenyl derivative 2 and the p-Br-phenyl derivative 3, was focused on the single isomer C5-substituted. As for 1a, the detected inhibitory activity of 2 and 3 was in the low micromolar range (6.3 µM and 1.6 µM, respectively; Table 1).

Assay [2] relates to neuroblastoma SH-SY5Y tumor cell line. Put plainly: MTT antiproliferative assay. It counts as cell-based, Human. Conditions: SH-SY5Y cells; for antiproliferative effect (in words): 1–50 µM, 24, 48 and 72 h; for antiproliferative effect (in words) / inhibition at 25 µM: MTT; for inhibition at 25 µM / IC50: Homo sapiens; for inhibition at 25 µM: after 72 h, read-out: inhibition of cell proliferation; for IC50: MTT test. The protocol:
Human neuroblastoma cell line SH-SY5Y was originally obtained from ATCC (Rockville, MD, USA). Cells were cultured as previously reported. Briefly, we employed RPMI 1640 medium with 10% heat-inactivated fetal bovine serum (FBS), 2 mM L-glutamine, 1 mM sodium pyruvate, 100 IU/mL penicillin and 100 μg/mL streptomycin at 37 °C in a humidified atmosphere with 5% CO2. All the reagents for cell culture were from Carlo Erba (Milan, Italy). For biological investigations, compounds 1a, 2 and 3 were solubilized in dimethyl sulfoxide (DMSO) to obtain stock solutions at a final concentration of 50 mM that were stored at −20 °C. Just prior use, aliquots were diluted in medium to the final concentrations ranging from 1 to 50 μM.
The abovementioned compounds were evaluated by the MTT assay to assess their anti-proliferative activity, as reported by Ferlazzo et al. Cells were seeded at a density of 5 × 10^3 cell/well in 96-well plates and incubated overnight at 37 °C. In treated cells, the medium was then replaced with a fresh one in which the compounds were diluted from 1 to 50 µM. Untreated cells together with ones exposed to DMSO 0.1% served as control and solvent control, respectively. After incubation for 24, 48, and 72 h, plates were firstly centrifuged, then the medium was removed, and a solution of 3-(4,5-dimethylthiazole-2-yl)-2,5-diphenyltetrazolium bromide (MTT; Sigma-Aldrich, Milan, Italy) at a concentration of 0.5 mg/mL in fresh medium (w/o phenol red) was added. Plates were incubated for further 4h. Afterward, MTT solution was removed, and the obtained formazan crystals were solubilized in 100 µL of a lysis buffer consisting of HCl/isopropanol 0.1 N and regularly shaken. Optical density was measured employing a microplate reader (iMark™, Bio-Rad Laboratories, Milan, Italy) at 595 nm. All experiments were carried out in eight replicates for three times. Results are expressed as the percentage of viable cells compared to untreated cells.
In general terms: Tetrazolium dyes change colour on reduction, which living cells bring about.

Structures are written as SMILES. Entries after “also recorded” stand apart in the source; their conditions may differ. Some results are limits rather than exact numbers.

Broadly, the Inhibition is the relative decrease from the control value, in per cent. Read a high Inhibition as strong suppression. For orientation: IC50 means the concentration that inhibits the measured activity by half. High values mean weaker potency, low ones greater potency. `Cc1cc(C(=O)Nc2ccc(/C=C/C(=O)NO)cc2)n(-c2ccc(C#N)cc2)n1` [Compound 2, (E)-1-(4-cyanophenyl)-N-(4-(3-(hydroxyamino)-3-oxoprop-1-enyl)phenyl)-3-methyl-1H-pyrazole-5-carboxamide]: in assay [1], the “Inhibition at 10 μM (%)” value came to 51%, the “Inhibition at 500 μM (%)” value is reported as 88% and half-maximal inhibition (IC50) was put at 6.3 ± 0.3 µM. In assay [2], the “antiproliferative effect (in words)” value is “inactive”. The “antiproliferative effect (in words)” value in assay [2] (listed as 2a) is “None of the tested concentrations; also recorded: No antiproliferative effect”.

Consider `O=C(/C=C/c1ccc(NC(=O)c2cc(-c3ccc(Br)cc3)[nH]n2)cc1)NO` [Compound 5, (E)-5-(4-bromophenyl)-N-(4-(3-(hydroxyamino)-3-oxoprop-1-enyl)phenyl)-1H-pyrazole-3-carboxamide], for which, in assay [1], the “Inhibition at 500 μM (%)” value was determined as 15% and the IC50 was greater than 500 µM.

As to `Cc1cc(C(=O)Nc2ccc(/C=C/C(=O)NO)cc2)n(-c2ccccc2)n1` [Compound 1a, (E)-N-(4-(3-(hydroxyamino)-3-oxoprop-1-enyl)phenyl)-3-methyl-1-phenyl-1H-pyrazole-5-carboxamide], in assay [1], the “Inhibition at 500 μM (%)” value is on record as 86% and the midpoint of inhibition, the IC50, lay at 7.1 ± 0.5 µM. Also, in assay [2], the inhibition at 25 µM is greater than 75% and inhibition was half-maximal at 5.34 µM (IC50).

As for `Cc1cc(C(=O)Nc2ccc(/C=C/C(=O)NO)cc2)n(-c2ccc(Br)cc2)n1` [Compound 3, (E)-1-(4-bromophenyl)-N-(4-(3-(hydroxyamino)-3-oxoprop-1-enyl)phenyl)-3-methyl-1H-pyrazole-5-carboxamide], in assay [1], the “Inhibition at 10 μM (%)” value came to 74%, the “Inhibition at 500 μM (%)” value came out at 88% and the IC50 worked out at 1.6 ± 0.2 µM. In addition, in assay [2], the inhibition at 25 µM was greater than 75% and the IC50 was found to be 5.61 µM.

`O=C(/C=C/c1ccc(NC(=O)c2n[nH]c3c2Cc2ccccc2-3)cc1)NO` [Compound 6, (E)-N-(4-(3-(hydroxyamino)-3-oxoprop-1-enyl)phenyl)-1,4-dihydroindeno[1,2-c]pyrazole-3-carboxamide]: in assay [1], the “Inhibition at 10 μM (%)” value worked out at 29%, the “Inhibition at 500 μM (%)” value came to 87% and it took 46.5 ± 1.5 µM to reach half-maximal inhibition (IC50).

For `CC(/C=C/C(=O)NO)=C\[C@@H](C)C(=O)c1ccc(N(C)C)cc1` [TSA, Trichostatin A, reference compound], half-maximal inhibition in assay [1] (IC50) required 3.4 ± 0.2 µM.

For `O=C(/C=C/c1ccc(NC(=O)c2cc(-c3ccccc3)[nH]n2)cc1)NO` [Compound 4, (E)-N-(4-(3-(hydroxyamino)-3-oxoprop-1-enyl)phenyl)-5-phenyl-1H-pyrazole-3-carboxamide], in assay [1], the “Inhibition at 10 μM (%)” value stood at 13%, the “Inhibition at 500 μM (%)” value was determined as 71% and the IC50 is 155 ± 2.8 µM.

As to `Cc1cc(C(=O)Nc2ccc(/C=C/C(=O)NO)cc2)nn1-c1ccccc1` [Compound 1b, (E)-N-(4-(3-(hydroxyamino)-3-oxoprop-1-enyl)phenyl)-5-methyl-1-phenyl-1H-pyrazole-3-carboxamide], in assay [1], the “Inhibition at 10 μM (%)” value is 6%, the “Inhibition at 500 μM (%)” value is reported as 30% and the half-maximal inhibitory concentration (IC50) was greater than 500 µM.

For the origin of these results see PMC6412695, “Hydroxamic Acid-Based Histone Deacetylase (HDAC) Inhibitors Bearing a Pyrazole Scaffold and a Cinnamoyl Linker” (International Journal of Molecular Sciences, 2019).
